Common to all, as to format: cell-based
Assay [1] relates to NB-1 cells (a human neuroblastoma strain). Briefly: Differentiation inducing effect for NB-1 cells. The note with it: 4-hour incubation. Set-up: key: -: none; ±: slight (<20%); +: medium (20-80%); ++: heavy (>80%). The procedure: The differentiation inducing effect for the NB-1 cells (a human neuroblastoma strain: cell strain derived from neuroblastoma generated in infantile adrenal gland) was examined. The NB-1 cells were applied to a 96-well plate at a rate of 2×10^3 cells/well and precultured for 3 days. After attachment and growth were stabilized, the medium (RPMI 1640+10% fetal calf serum+SM.PC) was exchanged and a 10 μl solution of each test compound was added. Then, the cells were kept under constant observation to determine the occurrence or non-occurrence of differentiation. 2 mM (1.037 mg/ml) of dibutyryl cAMP dissolved in RPMI 1640 was used as positive control. NKH-477 and 14,15-dihydro-6-(3-dimethylaminopropionyl)forskolin hydrochloride were dissolved in a physiological saline. Forskolin was dissolved in DMSO and diluted with a physiological saline. The criterion for judgment of morphological change in differentiation is as follows. The figures in the parentheses are the ratio of the differentiated cells to the whole cells. It was confirmed that DMSO was totally devoid of differentiation inducing and promoting action at the concentrations used in this test.

Assay [2] relates to collagen-induced aggregation of rabbit blood thrombocyte. The assay can be described thus: Collagen-induced platelet aggregation inhibition, rabbit platelet rich plasma. To be noted: Oryctolagus cuniculus, Platelet; rabbit PRP, collagen 10 μg/ml; mean, n = 5; read-out: Platelet aggregation inhibitory action (IC50), Collagen-induced aggregation. The procedure: (§1) The platelet aggregation inhibitory action of NKH-477 was examined on collagen-induced aggregation and ADP-induced aggregation of rabbit blood thrombocyte. The male Japanese white rabbits (body weight: 2.4-2.8 kg, procured from Tokyo Experimental Animals Co., Ltd.) were divided into groups of 5. The rabbits were etherized and blood was collected from the carotid artery of each rabbit. A 3.8% sodium citrate solution (final concentration: 0.38%) was added to a portion of blood collected from each group of rabbits to obtain platelet rich plasma (PRP). The remaining portion of blood was centrifuged at 3,000 r.p.m. for 15 minutes to obtain platelet poor plasma (PPP). First, permeability of PRP and PPP was determined by using an aggregometer (RMA-31 mfd. by Rika Denki Kogyo K. K.) and set at 0% and 100%, respectively. Separately from the above operation, 250 μl of PRP was placed in a cuvette and after preliminary heating at 37° C. for 2 minutes, 20 μl of specimen was added and incubated under stirring for 2 minutes. Then 10 μl of ADP (Sigma, final conc.: 3×10^-6 M) or collagen (Hormon-Chemie, final conc.: 10 μg/ml) was added and the transmission rate was measured. The maximum transmission rate observed in this operation was termed as the maximum aggregation rate. Recording in this operation was conducted on an ink-written recorder (B-381L mfd. by Rika Denki Kogyo K. K.). NKH-477 was dissolved in a physiological saline to make concentrations of 10^-8 to 10^-5 M. Forskolin dissolved in ethanol was used as control.

Assay [3] concerns ADP-induced aggregation of rabbit blood thrombocyte. Briefly: ADP-induced platelet aggregation inhibition, rabbit platelet rich plasma. The note with it: Oryctolagus cuniculus, rabbit PRP, ADP 3×10^-6 M, mean, n = 5, read-out: Platelet aggregation inhibitory action (IC50), ADP-induced aggregation. The procedure:
as §1, with “NKH-477 was dissolved in a physiological saline to make concentrations of 10^-8 to 10^-5 M. Forskolin dissolved in ethanol was used as control.” left out

SMILES strings stand for the structures. Where a name gives a salt, the structure may show the parent alone.

`CC[C@@]1(C)CC(=O)[C@]2(O)[C@@]3(C)[C@@H](O)CCC(C)(C)[C@@H]3[C@H](OC(=O)CCN(C)C)[C@H](OC(C)=O)[C@@]2(C)O1` [14,15-dihydro-6-(3-dimethylaminopropionyl)forskolin hydrochloride]: the “Effect (differentiation inducing)” value in assay [1] (Dose 1.56 μM) was “± (slight (<20%))”; in assay [1] (Dose 6.25 μM) it was “± (slight (<20%))”; in assay [1] (Dose 25.00 μM), “++ (heavy (>80%))”; in assay [1] (Dose 100.00 μM), “++ (heavy (>80%))”.

As to `CCCC(=O)Nc1ncnc2c1ncn2[C@@H]1O[C@@H]2COP(=O)(O)O[C@H]2[C@H]1OC(=O)CCC` [Dibutyryl cAMP, dibutyryl cAMP, reference compound], the “Effect (differentiation inducing)” value in assay [1] (Dose 2000.0 μM) was “+ (medium (20-80%))”.

By IC50 is commonly meant the concentration that inhibits the measured activity by half. For the compound `C=C[C@@]1(C)CC(=O)[C@]2(O)[C@@]3(C)[C@@H](O)CCC(C)(C)[C@@H]3[C@H](O)[C@H](OC(C)=O)[C@@]2(C)O1` [Forskolin], the IC50 in assay [2] was found to be 3.09 µM; in assay [3], 6.03 µM. Besides, the “Effect (differentiation inducing)” value in assay [1] (Dose 1.56 μM) is “-”; in assay [1] (Dose 6.25 μM), “-”; in assay [1] (Dose 25.00 μM), “± (slight (<20%))”; in assay [1] (Dose 100.00 μM) it was “+ (medium (20-80%))”.

The record behind these values is patent US5789439A, “Pharmaceutical use of forskolin derivatives” (Nippon Kayaku Kabushiki Kaisha, priority 1990, dated 1998).
